These results are taken from US20220306623A1, “PYRIDYL OR PYRIMIDYL MTOR KINASE INHIBITORS” (GLAXOSMITHKLINE INTELLECTUAL PROPERTY DEVELOPMENT LIMITED, priority 2019, published 2022).

Test [1] has as its system type I collagen deposition in primary lung fibroblasts derived from human tissue. Nature of the test: High throughput type I collagen deposition (scar-in-a-jar) high content screening assay. The format is cell-based. As to conditions: Primary lung fibroblast, 72 h, human pulmonary fibroblasts, 384-well, TGF-β 1 ng/ml 72 h, total collagen area, read-out: mean pIC50, high throughput type I collagen deposition (scar-in-a-jar) (converted). The protocol: Highthroughput, cellular type I collagen deposition was measured by adapting a published method; scar-in-a-jar (Chen et al., 2009) to primary lung fibroblasts derived from human tissue and combining with high content analysis to permit fluorescent quantification of collagen deposited in the extracellular matrix (ECM). The human biological samples were sourced ethically and their research use was in accordance with the terms of the informed consents.
Test compounds were dissolved in 100% DMSO to give 10 mM (stocks) and further diluted to give half log dilutions to generate an 11 point concentration response curve. 1 ul was transferred to 384-well plates (Greiner Group, Kremsmunster, Austria, Catalogue No Greine 781280r).
Human pulmonary fibroblasts were maintained in DMEM media (Gibco, Catalogue No 21969) supplemented with 4 mM L-glutamine (Gibco Catalogue No 25030-024) and 10% heat inactivated FBS (Gibco, Catalogue No 10099-141) at 37° C. in 10% CO2. Cells were harvested and resuspended at 4×10^6 cells/ml in a T175 cell culture flask (BD Falcom, Catalogue No: 353112) containing 50 mL of culture media. After 4 days 37° C. in 10% CO2, cells were harvested and seeded at 4000 cells per well ([…]) into 384-well plates (BD Falcon, Catalogue No 353962Greiner) in assay media (0.4% heat inactivated FBS, 4 mM L-glutamine). Plates were sealed with breathable seals (Sigma, Catalogue No. BEM-1). Assay plates were incubated for 72 h at 37° C. in 10% CO2.
Assay media was supplemented with 112.5 mg/ml Ficoll 70 (Sigma, Catalogue No F2878), 75 mg/ml Ficoll 400 (Sigma, Catalogue No F4375) and 50 µg/ml ascorbic acid (Sigma, Catalogue No A8960). 30 μL assay media were added to 1 l compound ([…] compound concentration in 1% DMSO). Diluted compounds (10 μL) were transferred to plates containing cells and incubated for 3 h at 37° C. in 10% CO2. Transforming growth factor (TGF)-β (R&D systems, Catalogue No 100-B/CF) was reconstituted to give 10 µg/mL (stock) and further diluted in assay media containing Ficoll and ascorbic acid (1 in 3333). TGF-β was added to cell plates (1 ng/ml final) and cells incubated for 72 h at 37° C. in 10% CO2.
Media was aspirated from cells and 30 µL/well 100% ice-cold methanol added and incubated at RT for 5 min to fix cells. Methanol was aspirated and cells washed with PBS (3×). To block and permeabilise, cells were incubated with PBS containing 1% BSA and 0.1% Triton X 100 for 20 min, followed by PBS wash (3×). Cells were incubated with mouse anti human type I collagen monoclonal antibody (Sigma, Catalogue No C2456) diluted 1:1000 in PBS for 24 h at 4° C. Cells were washed with PBS containing 0.1% Tween-20 (3×) and incubated with secondary alexa fluor 488 goat-anti-mouse antibody (Invitrogen, Catalogue No A11001, 1 in 500 in PBS) and Hoechst 33342 (Sigma, Catalogue No H21492), 1 in 1000 in PBS) for 1 h at RT, prior to washing with PBS containing 0.1% Tween (×4).
Type I collagen immunoreactivity was detected using the INCell 2000 Analyzer (GE Healthcare, INcell 2000) set to excitation and emission wavelengths for DAPI and FITC with laser focus and exposure adjusted to appropriate levels. Images were imported and analysed using Columbus software (Perkin Elmer) and computational algorithms to quantify “total collagen area” and “cell count”.
Data analysis was performed by determining 0/inhibition values for test compounds relative to the minimum (media only) and maximum responses (TGF-βstimulation) with non-linear regression analysis to determine IC50 values for test compounds.

For test [2], the target named is T1, mTOR (Homo sapiens, UniProt P42345).
T1 construct: capturing of endogenously expressed target proteins from cell extracts by a bead-immobilized capturing ligand; endogenous in cells; host or cells: HuT-78 cells (ECACC 88041901), cell lysate
Description: mTOR kinobeads competition-binding assay. As to conditions: HuT-78 cell lysate, bead-immobilized capturing ligand, 2 h at 4° C., mean of multiple experiments; read-out: mean pIC50, mTOR kinobeads assay (converted). On the procedure: The affinity of test compounds for mTOR was determined in the mTOR kinobeads assay. This is a competition-binding assay based on the capturing of endogenously expressed target proteins from cell extracts by a bead-immobilized capturing ligand in the presence of the test compound.
HuT-78 cells (European Collection of Authenticated Cell Cultures, 88041901) were cultured according to vendor's instructions. Frozen cell pellets were homogenized in 3× pellet volumes lysis buffer (50 mM Tris-HCl, 0.4% (v/v) Igepal-CA630, 5% glycerol, 150 mM NaCl, 1.5 mM MgCl2, 25 mM NaF, 1 mM sodium vanadate, 1 mM DTT, pH 7.5, supplemented with EDTA-free protease inhibitor tablet (Roche)). The sample was dispersed using a Dounce homogenizer, kept rotating for 30 min at 4° C., and centrifuged for 10 min at 20000 gat 4° C. The supernatant was centrifuged again for 1 h at 145 000 g. The protein concentration was determined by Bradford assay (BioRad), aliquots were snap frozen in liquid nitrogen and stored at −80° C.
The capturing matrices were generated by derivatizing N-hydroxysuccinimide (NHS) activated Sepharose 4 beads (GE Healthcare) with the functionalized ligands Compound A and Compound C at a ligand density of 5 mM. Remaining NHS-groups were blocked with ethanolamine.
For the mTOR kinobeads assay the matrices were combined in a 1:1 ratio and equilibrated in DP buffer (50 mM Tris-HCl (pH 7.5), 0.4% (v/v) Igepal-CA630, 5% (v/v) glycerol, 150 mM NaCl, 1.5 mM MgCl2, 25 mM NaF, 1 mM Na3VO4, 1 mM dithiothreitol). All steps of the mTOR kinobeads assay were performed at 4° C. or on ice. The cell lysate was diluted with DP buffer to a final concentration of 5 mg/ml and a final detergent concentration of 0.4% (v/v) Igepal-CA630. For the assay 250 μg cell lysate and 2.5 μl capturing matrix per well (final assay volume: 75 μl) were incubated in the presence of test compounds in a 384-well filter plate (MultiScreenHTS HV Filter Plate, 0.45 μm, MZHVNOW50, Merck Millipore). Each plate contained 16 positive (100 μM Compound B) and 16 negative (2% v/v DMSO) control wells. Compounds were tested in a concentration-response applying 1:3 or 1:4 dilution steps for in total 11 data points. DMSO concentration was 2% (v/v). After 2 h incubation on an overhead shaker (Roto-Shake Genie, Scientific Industries Inc.) at 4° C. the non-bound fraction was removed by washing the beads with DP buffer. Proteins retained on the beads were eluted in SDS sample buffer (200 mM Tris (pH 7.4), 250 mM Trizma Base, 4% (w/v) SDS, 20% (v/v) glycerol, 0.01% (w/v) bromophenol blue, 50 mM dithiothreitol) into a collection plate (384 well polypropylene microplate, V-shape, Greiner, 781 280). Eluates were spotted on nitrocellulose membranes (400 nl per spot) using an automated pin-tool liquid transfer (Biomek FX, Beckman). After drying, the membranes were rehydrated in 20% (v/v) ethanol and blocked by incubation with Odyssey blocking buffer (LICOR, 927-40000) for 1 h at room temperature. Blocked membranes were incubated overnight at 25° C. with Odyssey blocking buffer supplemented with a specific anti-mTOR antibody (Cell Signaling, 2972; 1:500) and 0.4% TWEEN-20. Then the membranes were washed in PBST buffer and incubated for 60 minutes at room temperature with the detection antibody (IRDye™ labelled antibody from LI-COR) diluted in Odyssey blocking buffer (LICOR 927-40000) containing 0.2% TWEEN-20. Then the membranes were washed with PBST and finally rinsed twice with PBS buffer to remove residual Tween-20. The membranes were then scanned with the Odyssey® Infrared Imaging System (LI-COR Biosciences). Fluorescence signals were recorded and analyzed according to the instructions of the manufacturer. Concentration response curves were computed with the software Activity Base. All data were normalized to the mean of 16 high (negative control) and 16 low (positive control) control wells on each plate. […]

On to `CC[C@H]1COCCN1c1cc(CS(=O)(=O)NC)nc(-c2ccc3[nH]c(C)cc3n2)n1` [Example 11, 1-{6-[(3S)-3-ethylmorpholin-4-yl]-2-{2-methyl-1H-pyrrolo[3,2-b]pyridin-5-yl}pyrimidin-4-yl}-N-methylmethanesulfonamide], for which the figures for the IC50 in test [1] and in test [2] were 20 nM and ≤ 0.2 nM, respectively.
For `CC[C@H]1COCCN1c1cc(CS(C)(=O)=O)nc(-c2ccc3[nH]c(C)cc3n2)n1` [Example 12, (3S)-3-ethyl-4-[6-(methanesulfonylmethyl)-2-{2-methyl-1H-pyrrolo[3,2-b]pyridin-5-yl}pyrimidin-4-yl]morpholine] the same measures were 20 to 3160 nM and ≤ 0.316 nM.
Turning to `CC[C@H]1COCCN1c1cc(C2(S(C)(=O)=O)CCN(C)CC2)cc(-c2ccc3[nH]c(CO)cc3n2)n1` [Example 20, (S)-(5-(6-(3-ethylmorpholino)-4-(1-methyl-4-(methylsulfonyl)piperidin-4-yl)pyridin-2-yl)-1H-pyrrolo[3,2-b]pyridin-2-yl)methanol], the IC50 in test [1] is 20 to 3160 nM.
Same read-out and setting: then `CC[C@H]1COCCN1c1cc(C2(S(C)(=O)=O)CCNCC2)nc(-c2ccc3[nH]c(C)cc3n2)n1` [Example 17, (3S)-3-ethyl-4-[6-(4-methanesulfonylpiperidin-4-yl)-2-{2-methyl-1H-pyrrolo[3,2-b]pyridin-5-yl}pyrimidin-4-yl]morpholine], with 20 to 3160 nM.
In the case of `CC[C@H]1COCC(=O)N1c1cc(CS(=O)(=O)N(C)C)cc(-c2ccc3[nH]c(CO)cc3n2)n1` [Example 29, (S)-1-(2-(3-ethyl-5-oxomorpholino)-6-(2-(hydroxymethyl)-1H-pyrrolo[3,2-b]pyridin-5-yl)pyridin-4-yl)-N,Ndimethylmethanesulfonamide], the IC50 in test [1] is 20 to 3160 nM; in test [2], ≤ 1.26 nM.
For `CC[C@H]1COCC(=O)N1c1cc(CS(C)(=O)=O)nc(-c2ccc3[nH]c(CO)cc3n2)n1` [Example 5, (5S)-5-ethyl-4-{2-[2-(hydroxymethyl)-1H-pyrrolo[3,2-b]pyridin-5-yl]-6-(methanesulfonylmethyl)pyrimidin-4-yl}morpholin-3-one] the same measures were 20 to 3160 nM and ≤ 0.2 nM.
As for `CC[C@H]1COCC(=O)N1c1cc(CS(=O)(=O)N(C)C)cc(-c2ccc3[nH]c(CNC)cc3n2)n1` [Example 7, (S)-1-(2-(3-ethyl-5-oxomorpholino)-6-(2-((methylamino)methyl)-1H-pyrrolo[3,2-b]pyridin-5-yl)pyridin-4-yl)-N,N-dimethylmethanesulfonamide], in test [1], the IC50 was 20 to 3160 nM.
`CC[C@H]1COCC(=O)N1c1cc(CS(C)(=O)=O)cc(-c2ccc3[nH]c(CNC)cc3n2)n1` [Example 28, (S)-5-ethyl-4-(6-(2-((methylamino)methyl)-1H-pyrrolo[3,2-b]pyridin-5-yl)-4-((methylsulfonyl)methyl)pyridin-2-yl)morpholin-3-one]: the IC50 in test [1] is 20 to 3160 nM.
Same read-out and setting: the figure for `CC[C@H]1COCCN1c1cc(C2(S(C)(=O)=O)CCN(C)CC2)cc(-c2ccc3[nH]c(C)cc3n2)n1` [Example 19, (S)-3-ethyl-4-(6-(2-methyl-1H-pyrrolo[3,2-b]pyridin-5-yl)-4-(1-methyl-4-(methylsulfonyl)piperidin-4-yl)pyridin-2-yl)morpholine] is 20 to 3160 nM.
